Consider seven compounds from PubChem BioAssay AID624129 (Sanford-Burnham Center for Chemical Genomics, 2012).

pIC50: −log10 of the molar value. Active and inactive are the calls of the source. The rule behind the calls is not given here.

Common to all, as to assay: CXCR6 receptor antagonists, dose response, cell-based, beta-arrestin, DiscoveRx, APJ panel, uHTS hits (AID 624129)
Test [1] has as its target Beta-galactosidase (Escherichia coli) (UniProt Q8VNN2). Particulars: CXCR6 beta-arrestin (DiscoveRx) antagonist cell assay, b-galactosidase.
Test [2] concerns the target Apelin receptor (Homo sapiens) (UniProt P35414). Particulars: CXCR6 beta-arrestin (DiscoveRx) antagonist cell assay, APJ.
The target in test [3] is C-C chemokine receptor type 6 (Homo sapiens) (UniProt P51684). The following applies: CXCR6 beta-arrestin (DiscoveRx) antagonist cell assay.
Test [4] concerns the target C-X-C chemokine receptor type 6 (Homo sapiens) (UniProt O00574). The following applies: CXCR6 beta-arrestin (DiscoveRx) antagonist cell assay; for inhibition: CXCR6, run 1, dose range 2, at 80 µM (top of the series).
Where [5] appears, read: dose range 1, mean IC50 across replicates.
The mark [6] stands for this setting: CCR6, dose range 1, mean IC50 across replicates.
The mark [7] stands for this setting: CXCR6, dose range 1, mean IC50 across replicates.

Chain of Beta-galactosidase (Escherichia coli) (Q8VNN2 whole entry, looked up): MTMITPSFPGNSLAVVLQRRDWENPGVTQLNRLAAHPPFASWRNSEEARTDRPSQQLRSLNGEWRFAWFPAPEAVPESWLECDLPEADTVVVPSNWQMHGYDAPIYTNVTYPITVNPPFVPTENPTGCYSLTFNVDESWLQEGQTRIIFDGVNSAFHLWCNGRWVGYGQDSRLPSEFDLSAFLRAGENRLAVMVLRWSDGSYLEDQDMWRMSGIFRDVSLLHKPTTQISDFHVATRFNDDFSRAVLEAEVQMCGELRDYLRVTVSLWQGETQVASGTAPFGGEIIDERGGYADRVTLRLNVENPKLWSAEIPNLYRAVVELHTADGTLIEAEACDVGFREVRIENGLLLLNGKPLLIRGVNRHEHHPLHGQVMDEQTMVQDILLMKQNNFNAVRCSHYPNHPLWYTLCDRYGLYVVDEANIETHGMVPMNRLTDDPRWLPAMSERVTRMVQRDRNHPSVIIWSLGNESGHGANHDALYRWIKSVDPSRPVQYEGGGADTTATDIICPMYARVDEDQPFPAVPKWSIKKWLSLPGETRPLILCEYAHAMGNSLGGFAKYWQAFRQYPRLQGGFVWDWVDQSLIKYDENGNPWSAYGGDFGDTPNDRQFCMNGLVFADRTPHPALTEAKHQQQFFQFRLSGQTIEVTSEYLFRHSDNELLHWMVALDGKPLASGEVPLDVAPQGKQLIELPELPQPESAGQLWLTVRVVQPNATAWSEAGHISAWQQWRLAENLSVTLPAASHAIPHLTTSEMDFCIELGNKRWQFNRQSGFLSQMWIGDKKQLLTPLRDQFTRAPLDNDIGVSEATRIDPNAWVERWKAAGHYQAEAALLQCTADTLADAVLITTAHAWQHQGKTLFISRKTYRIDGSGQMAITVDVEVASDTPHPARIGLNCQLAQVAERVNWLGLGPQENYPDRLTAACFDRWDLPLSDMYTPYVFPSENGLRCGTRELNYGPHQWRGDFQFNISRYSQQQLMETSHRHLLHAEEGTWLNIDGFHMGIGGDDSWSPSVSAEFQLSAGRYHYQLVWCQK
Chain of C-X-C chemokine receptor type 6 (Homo sapiens) (O00574 whole entry, looked up): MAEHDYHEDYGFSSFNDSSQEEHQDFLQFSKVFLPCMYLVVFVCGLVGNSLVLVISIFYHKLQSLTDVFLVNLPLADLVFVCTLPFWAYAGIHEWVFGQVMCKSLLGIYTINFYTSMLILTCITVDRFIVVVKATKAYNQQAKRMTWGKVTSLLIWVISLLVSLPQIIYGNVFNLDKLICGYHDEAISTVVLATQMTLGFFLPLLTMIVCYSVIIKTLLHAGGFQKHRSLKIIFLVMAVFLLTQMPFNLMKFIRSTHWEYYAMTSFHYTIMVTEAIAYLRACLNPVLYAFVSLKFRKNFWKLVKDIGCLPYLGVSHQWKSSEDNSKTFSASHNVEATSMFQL

With `CC(Oc1ccc(Br)cc1)C(=O)Nc1nc(-c2ccccn2)cs1` (stereo unspecified), the IC50 in test [1] (dose range 1) is > 80 µM (inactive). For the same compound, the pIC50 in test [1] (setting [5]) is below 4.10; in test [2] (dose range 1) it was 5.16; in test [2] (setting [5]), 5.23; in test [2] (run 2, dose range 1), 5.25; in test [2] (run 3, dose range 1) it was 5.28; in test [3] (CCR6, dose range 1), 5.26. The pIC50 in test [3] (setting [6]) is 5.18; in test [3] (CCR6, run 2, dose range 1), 5.11; in test [4] (CXCR6, dose range 1), 5.17; in test [4] (setting [7]), 5.26; in test [4] (CXCR6, run 1, dose range 2), 5.37; in test [4] (CXCR6, run 2, dose range 1), 5.21. Moreover, the pIC50 in test [4] (CXCR6, run 2, dose range 2) is 5.31.
For the compound `COc1ccc(CN2C(=O)C(Cc3ccccc3)Nc3ncnc(N4CCN(c5ccccc5)CC4)c32)cc1` (stereo unspecified), the pIC50 in test [1] (dose range 1) was 5.11; in test [1] (setting [5]), 5.11; in test [2] (dose range 1), 5.18; in test [2] (setting [5]), 5.03; in test [2] (run 2, dose range 1), 5.00; in test [2] (run 3, dose range 1), 4.95. In addition, the pIC50 was 5.34 in test [3] (CCR6, dose range 1); 5.36 in test [3] (setting [6]); 5.39 in test [3] (CCR6, run 2, dose range 1); 5.08 in test [4] (CXCR6, dose range 1); 5.26 in test [4] (setting [7]); 5.50 in test [4] (CXCR6, run 1, dose range 2). Also, the pIC50 in test [4] (CXCR6, run 2, dose range 1) is 5.34; in test [4] (CXCR6, run 2, dose range 2), 5.23.
As to `O=C1c2ccccc2C(=O)N1OS(=O)(=O)c1ccc(F)cc1`, the IC50 in test [1] (dose range 1) is > 80 µM (inactive); in test [4] (CXCR6, dose range 1) it was > 80 µM (inactive). The pIC50 is below 4.10 in test [1] (setting [5]); 4.70 in test [2] (dose range 1); 4.66 in test [2] (setting [5]); 4.57 in test [2] (run 2, dose range 1); 4.71 in test [2] (run 3, dose range 1); 4.75 in test [3] (CCR6, dose range 1). For the same compound, the pIC50 in test [3] (setting [6]) was 4.46; in test [3] (CCR6, run 2, dose range 1), 4.29; in test [4] (setting [7]), below 4.10; in test [4] (CXCR6, run 2, dose range 1), below 4.10. In test [4], this compound showed an inhibition of 69.8%.
On to `FC(F)(F)c1cnc(NNC(=S)Nc2ccc(Cl)cc2)c(Cl)c1`, for which the pIC50 in test [1] (dose range 1) was 4.39; in test [1] (setting [5]), 4.39; in test [2] (dose range 1), 4.91; in test [2] (setting [5]), 4.90; in test [2] (run 2, dose range 1), 4.77; in test [2] (run 3, dose range 1), 5.07. In addition, the pIC50 in test [3] (CCR6, dose range 1) was 4.96; in test [3] (setting [6]), 4.98; in test [3] (CCR6, run 2, dose range 1), 5.00; in test [4] (setting [7]), 4.92; in test [4] (CXCR6, run 1, dose range 2), 5.11; in test [4] (CXCR6, run 2, dose range 1), 4.84. In test [4] (CXCR6, run 2, dose range 2), the pIC50 is 4.85. Moreover, the IC50 result in test [4] (CXCR6, dose range 1) is “inactive”.
For `CCCC(=O)OCCNc1cc(Sc2nccn2C)c2nonc2c1[N+](=O)[O-]`, the IC50 in test [1] (dose range 1) is > 80 µM (inactive). For the same compound, the pIC50 in test [1] (setting [5]) is below 4.10; in test [2] (dose range 1), 5.08; in test [2] (setting [5]), 5.21; in test [2] (run 2, dose range 1), 5.35; in test [2] (run 3, dose range 1), 5.23; in test [3] (CCR6, dose range 1), 5.31. Besides, the pIC50 in test [3] (setting [6]) is 5.34; in test [3] (CCR6, run 2, dose range 1) it was 5.36; in test [4] (CXCR6, dose range 1), 5.31; in test [4] (setting [7]), 5.30; in test [4] (CXCR6, run 1, dose range 2) it was 5.25; in test [4] (CXCR6, run 2, dose range 1) it was 5.30. This compound gave a pIC50 in test [4] (CXCR6, run 2, dose range 2) of 5.34.
As for `COc1ccc(C[C@@H]2OC3(C=CC(=O)C=C3)O[C@H]2Cc2ccc(OC)cc2)cc1`, the IC50 in test [1] (dose range 1) was > 80 µM (inactive). In addition, the pIC50 was below 4.10 in test [1] (setting [5]); 5.09 in test [2] (dose range 1); 5.15 in test [2] (setting [5]); 5.16 in test [2] (run 2, dose range 1); 5.21 in test [2] (run 3, dose range 1); 5.41 in test [3] (CCR6, dose range 1). In addition, the pIC50 was 5.40 in test [3] (setting [6]); 5.39 in test [3] (CCR6, run 2, dose range 1); 5.25 in test [4] (CXCR6, dose range 1); 5.25 in test [4] (setting [7]); 5.27 in test [4] (CXCR6, run 1, dose range 2); 5.37 in test [4] (CXCR6, run 2, dose range 1). In test [4] (CXCR6, run 2, dose range 2), this compound had a pIC50 of 5.15.
In the case of `CN(C)c1nc(=NCc2ccco2)ss1`, the IC50 in test [1] (dose range 1) was > 80 µM (inactive). The pIC50 was below 4.10 in test [1] (setting [5]); 4.50 in test [2] (dose range 1); 4.60 in test [2] (setting [5]); 4.74 in test [2] (run 2, dose range 1); below 4.10 in test [2] (run 3, dose range 1); 4.36 in test [3] (CCR6, dose range 1). Also, the pIC50 in test [3] (setting [6]) was 4.41; in test [3] (CCR6, run 2, dose range 1), 4.47; in test [4] (setting [7]), 4.25; in test [4] (CXCR6, run 2, dose range 1), 4.47. For the same compound, the IC50 result in test [4] (CXCR6, dose range 1) was “inactive”. In addition, the inhibition in test [4] came to 82.8%.

As usually defined, the IC50 is the midpoint of a concentration-inhibition curve. As usually defined, the pIC50 is the negative decadic logarithm of the IC50, by convention in mol/L. By inhibition is commonly meant the change of the read-out against control, counted positive when it falls. Read a low inhibition as a weak effect.
